Assay results from patent US9675065B2 (priority 2011, dated 2017).
“Also recorded” adds a separate entry of the source.

Assays:
[1] = system: S. aureus (Staphylococcus aureus ATCC#6538); assay type: cell-based
[2] = system: Staphylococcus aureus; assay type: cell-based; conditions: pH 7
[3] = 10 ml of 5 wt % stock solution + 100 microliters acidified silver chloride, ceramic cylinder

Compound | rate of kill / biocide efficacy (in words) [1] | biocide efficacy (in words) [2] | gas formation on the test cylinder [3]
furoyl chlorate | excellent rate of kill; also recorded: excellent biocide efficacy | no antimicrobial efficacy | 
OO [hydrogen peroxide] |  |  | slow formation of gas
